# Laboratory results as given in the supplement of paper PMC10307832.
# Experiments:
# Test in all cases: relative viability (nuclei count vs DMSO), 5 days (fraction); higher = more cells survive
# Kobe2602 + Linsitinib = compound: C1=CC(=CC=C1NC(=S)NNC2=C(C=C(C=C2[N+](=O)[O-])C(F)(F)F)[N+](=O)[O-])F [Kobe2602] + C[C@]1(O)C[C@@H](c2nc(-c3ccc4ccc(-c5ccccc5)nc4c3)c3c(N)nccn32)C1 [Linsitinib] (partner 1 µM)
# Procedure, shortened: (§1)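 Lung cancer cell lines, seeded in 1536-well plates, were treated the following day by pin tool with a single drug or with five library-drug doses (not always all listed) in √10 steps on top of a fixed anchor-drug dose. Cells were fixed and nuclei stained in one step after 5 days, and nuclei were counted. Relative viability is the nuclei count for treated wells divided by that for vehicle wells, reported as medians of duplicate plates.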
# Cabozantinib + Foretinib = compound: COc1cc2nccc(Oc3ccc(NC(=O)C4(C(=O)Nc5ccc(F)cc5)CC4)cc3)c2cc1OC [Cabozantinib] + COc1cc2c(Oc3ccc(NC(=O)C4(C(=O)Nc5ccc(F)cc5)CC4)cc3F)ccnc2cc1OCCCN1CCOCC1 [Foretinib] (partner 0.25 µM)
# Procedure, shortened: as §1
# [1] = compound: COc1cc2nccc(Oc3ccc(NC(=O)C4(C(=O)Nc5ccc(F)cc5)CC4)cc3)c2cc1OC [Cabozantinib] + Nc1ncn([C@H]2C[C@H](O)[C@@H](CO)O2)c(=O)n1 [Decitabine] (partner 2 µM)
# Procedure, shortened: as §1
# Zosuquidar + Alpelisib = compound: O[C@@H](COc1cccc2ncccc12)CN1CCN([C@@H]2c3ccccc3[C@@H]3[C@H](c4ccccc42)C3(F)F)CC1 [Zosuquidar] + Cc1nc(NC(=O)N2CCC[C@H]2C(N)=O)sc1-c1ccnc(C(C)(C)C(F)(F)F)c1 [Alpelisib] (partner 2 µM)
# Procedure, shortened: as §1
Cell Line,relative viability (Kobe2602 + Linsitinib; first compound 0.2 µM),relative viability (Kobe2602 + Linsitinib; first compound 0.6325 µM),relative viability (Kobe2602 + Linsitinib; first compound 2 µM),relative viability (Kobe2602 + Linsitinib; first compound 6.325 µM),relative viability (Kobe2602 + Linsitinib; first compound 20 µM),relative viability (Cabozantinib + Foretinib; first compound 0.02 µM),relative viability (Cabozantinib + Foretinib; first compound 0.06325 µM),relative viability (Cabozantinib + Foretinib; first compound 0.6325 µM),relative viability (Cabozantinib + Foretinib; first compound 2 µM),relative viability ([1]; first compound 0.02 µM),relative viability ([1]; first compound 0.06325 µM),relative viability ([1]; first compound 0.6325 µM),relative viability ([1]; first compound 2 µM),relative viability (Zosuquidar + Alpelisib; first compound 0.01 µM),relative viability (Zosuquidar + Alpelisib; first compound 0.03162 µM),relative viability (Zosuquidar + Alpelisib; first compound 0.1 µM),relative viability (Zosuquidar + Alpelisib; first compound 0.3162 µM),relative viability (Zosuquidar + Alpelisib; first compound 1 µM),relative viability (Cabozantinib + Foretinib; first compound 0.2 µM),relative viability ([1]; first compound 0.2 µM)
PC-3 [JPC-3],0.952,0.872,0.965,0.976,0.956,1.19,1.2,1.09,1.04,0.782,0.886,0.872,0.797,0.986,1,0.91,1.03,0.994,,
HARA,0.959,1.02,0.948,0.839,0.847,1.04,1.02,0.949,0.691,0.556,0.653,0.812,0.786,0.784,0.822,0.765,0.825,0.761,0.711,
NCI-H2347,0.924,0.884,0.947,0.997,1.03,0.842,0.916,1.11,1.05,0.66,0.667,0.609,0.516,1.1,0.991,0.833,1.16,0.984,1.28,0.601
CAL-12T,0.707,0.821,0.705,0.916,0.709,1.22,1.31,1.08,1.18,,,,,1.17,1.13,1.16,1.41,1.13,1.17,
NCI-H2342,,,,,,1.09,1.16,1.06,0.799,0.642,0.832,0.788,0.544,,,,,,1.08,0.765
SW 900,,,,,,0.848,0.952,0.695,0.968,0.44,0.508,0.475,0.556,,,,,,0.837,0.412
IA-LM,0.506,0.462,0.632,0.476,0.573,1.15,1.15,1.23,1.24,,,,,0.818,0.908,0.714,0.909,0.773,1.22,
NCI-H1563,1.1,1.39,1.08,1.14,1.34,1.02,0.907,0.912,0.893,,,,,0.935,0.988,0.904,0.988,0.921,0.953,
NCI-H1703,0.609,0.99,0.499,0.749,0.377,0.305,0.399,0.427,0.37,,,,,0.355,0.325,0.237,0.438,0.345,0.356,
EBC-1,0.796,0.975,0.893,0.938,0.871,0.101,0.104,0.0898,0.114,,,,,0.83,0.842,0.794,1.09,0.779,0.0976,
NCI-H1792,0.563,0.53,0.613,0.521,0.558,,,,,,0.557,0.588,0.444,0.66,0.813,0.53,0.705,0.799,,0.609
NCI-H1650,,,,,,1.31,1.48,1.27,0.978,0.386,0.401,0.514,0.548,,,,,,1.02,0.365
NCI-H1648,,,,,,,,,,0.469,0.524,0.532,0.516,,,,,,,
NCI-H1299,0.887,0.979,0.961,1.03,0.945,1.12,1.12,1.11,1.13,,,,,1.07,0.998,1.05,0.995,1.05,1.16,
NCI-H2170,,,,,,1.01,0.999,0.949,0.974,0.436,0.465,0.487,0.458,0.799,0.786,0.774,0.821,0.769,1,0.446
NCI-H1623,,,,,,0.783,1.05,0.828,0.874,,,,,,,,,,0.695,
NCI-H2228,0.576,0.733,0.809,0.756,0.598,1.08,1.26,0.794,0.672,,,,,0.562,0.716,0.881,0.679,0.859,0.932,
HCC-44,0.739,0.668,0.632,0.624,0.766,,,,,0.908,0.996,1,0.987,0.753,0.817,0.842,0.885,0.755,,0.981
NCI-H522,,,,,,,,,,0.577,0.655,0.74,0.654,,,,,,,0.564
Calu-6,0.911,0.975,0.897,0.954,0.895,1.04,0.876,0.916,0.811,,,,,0.938,0.972,1.01,1.12,0.879,0.923,
ChaGo-K-1,,,,,,0.937,1.04,0.836,0.857,0.551,0.52,0.534,0.547,,,,,,0.968,0.549
